# “Also recorded” adds a separate entry of the source.
# Key:
# Format in all cases: in vivo
# [1] = system: 6 Hz seizures; test: 6 Hz anticonvulsant evaluation in mice, ICV administration
# From the text: Huperzine delivered directly to the central nervous system (e.g., cerebral ventricles, intrathecal space), via direct injection and/or through an apparatus such as a pump or material containing Huperzine, bypasses the systemic effect by minimizing bioavailability of Huperzine in the rest of the body, and potently prevents and treats seizure, pain and/or other neurological conditions.
# Results after direct administration to neural tissue using an art-recognized 6-HZ animal model are shown below.
# (§1) Doses listed as pmol/5 microliter injection volume for ICV. TD50 at 0.5 hrs: 36.15 (9.35-121.74) 1.57+/−0.51.
# Male, 18-25 g CF1 mice and 100-125 g Sprague-Dawley rats (Charles River Laboratories, Wilmington, Mass.) were used as the experimental animals. Animals were pretreated intraperitoneally (i.p.) with increasing doses of HupA and tested at various times after administration for protection against tonic extension (MES test), minimal clonic (s.c. PTZ test), limbic (6 Hz), or secondarily generalized (kindled rat) seizures. Seizure testing was carried out as follows. For the MES and 6 Hz tests, a drop of anesthetic/electrolyte solution (0.5% tetracaine hydrochloride in 0.9% saline) was applied to the eyes of each animal prior to placement of the corneal electrodes. The electrical stimulus in the MES test was 50 mA, 60 Hz, for mice and 150 mA, 60 Hz, for rats, delivered for 0.2 sec (White et al., 2002, In R. H. Levy et al., eds. Antiepileptic Drugs, 5th edition, p. 36-48, Philadelphia: Lippincott Williams & Wilkins). The ability of the test substance to prevent seizures induced by 6 Hz corneal stimulation (32 mA, 3 sec duration) was assessed at various times after i.p. administration of 1 mg/kg HupA For assessment of hippocampal kindling, HupA (1 mg/kg, i.p.) was administered. The ability of the compound to block the expression of hippocampal kindled seizures was evaluated using the rapid hippocampal kindling model (White et al., 2002). Animals not displaying secondarily generalize seizures were considered protected.
# [2] = system: mice; test: Toxicity / minimal motor impairment after ICV administration (6 Hz screen); details: for Toxic (animals toxic over number tested): 0.5 h
# From the text: as §1
# (§2) Minimal toxicity was identified in mice by the rotorod procedure.
# [3] = system: mice; test: Toxicity Model (TOX), rotorod / minimal motor impairment, mice i.p.; details: for Comment (6 Hz test, 22 mA) / Comment (6 Hz test, 32 mA): 1 h
# From the text: To investigate the neurotoxicity levels of the huperzine compounds, the Toxicity Model (TOX) using a rotorod is employed. The animals (e.g., mice) were trained to stand on an accelerating rotorod rotating at 10 rev min^−1 with a diameter of 3.2 cm. The trained animal can be given the huperzine compound at various doses and the effect of huperzine on their motor skills can be determined. The dose at which the animals fell off the rotorod is the toxic dose.
# The neurotoxicity of huperzine was tested in the rotorod test. The mice were trained to stand on an accelerating rotorod rotating at 10 rev min^−1 with a diameter of 3.2 cm. The trained animals were given the huperzine at various doses and the effect of huperzine on their motor skills was determined. The dose at which the animals fell off the rotorod was the toxic dose.
# Huperzine A was either administered in a soluble form (SOL) or as a suspension (SUS). […] To produce the suspension, huperzine A was ground to a powder using a mortar and pestle, and the powder mixed with methyl cellulose. This mixture was then sonicated to produce a suspension that was subsequently administered to mice in the weight range of 19.0 to 25.5 g. The data are presented as the number of mice showing an effect (N) from the full number of mice (F) tested. […] At four hours post administration, all three mice were protected (i.e., 100% were protected). […]
# as §2
smiles,measurement,setting,value
C/C=C1\[C@H]2C=C(C)C[C@]1(N)c1ccc(=O)[nH]c1C2 [Huperzine A],ED50,"[1]; 6 HZ, ICV, 32 mA, 0.5 h",0.21 pmol/5 microliter injection volume
same,N/F (animals active over number tested),"[1]; ICV, 32 mA, 0.5 h, dose 0.01 (pmol/5 microliter; head prints mg/kg)",3/8
same,N/F (animals active over number tested),"[1]; ICV, 32 mA, 0.5 h, dose 1 (pmol/5 microliter; head prints mg/kg)",5/8
same,N/F (animals active over number tested),"[1]; ICV, 32 mA, 0.5 h, dose 10 (pmol/5 microliter; head prints mg/kg)",6/8
same,N/F (animals active over number tested),"[1]; ICV, 32 mA, 0.5 h, dose 100 (pmol/5 microliter; head prints mg/kg)",8/8
same,N/F (animals active over number tested),"[1]; ICV, 32 mA, 0.5 h, dose 1000 (pmol/5 microliter; head prints mg/kg)",4/4
same,Time to Peak Effect N/F,"[1]; ICV, 32 mA, dose 10 (pmol/5 microliter), 0.25 h",2/4
same,Time to Peak Effect N/F,"[1]; ICV, 32 mA, dose 10 (pmol/5 microliter), 0.5 h",3/4
same,Time to Peak Effect N/F,"[1]; ICV, 32 mA, dose 100 (pmol/5 microliter), 0.25 h",4/4
same,Time to Peak Effect N/F,"[1]; ICV, 32 mA, dose 100 (pmol/5 microliter), 0.5 h",3/4
same,Time to Peak Effect N/F,"[1]; ICV, 32 mA, dose 100 (pmol/5 microliter), 1.0 h",1/4
same,ICV ED50 dose,"[1]; mouse 6-hz model, ICV",52 pgrams
same,maximum concentration in the cerebral ventricles after the ICV ED50 dose,"[1]; mouse 6-hz model, ICV ED50 dose, 40 μL",approximately 1.3 pgram/μL
same,body temperature,[2],Dose-dependent drop in body temperatures
same,Toxic (animals toxic over number tested),[2]; dose 0.01 (pmol/5 microliter; head mg/kg),0/8 Toxic
same,Toxic (animals toxic over number tested),[2]; dose 1 (pmol/5 microliter; head mg/kg),0/8 Toxic
same,Toxic (animals toxic over number tested),[2]; dose 10 (pmol/5 microliter; head mg/kg),2/8 toxic
same,Toxic (animals toxic over number tested),[2]; dose 100 (pmol/5 microliter; head mg/kg),6/8 Toxic
same,Toxic (animals toxic over number tested),[2]; dose 1000 (pmol/5 microliter; head mg/kg),4/4 toxic
same,TD50,"[2]; 0.5 hrs, (95% interval in brackets)",36.15 (9.35-121.74) pmol/5 microliter injection volume
same,Response comment,"[2]; dose 10, 0.25 h",Minimal motor impairment
same,Response comment,"[2]; dose 10, 0.5 h",Minimal motor impairment
same,Response comment,"[2]; dose 100, 0.25 h",Minimal motor impairment
same,Response comment,"[2]; dose 100, 0.5 h",Minimal motor impairment
same,Response comment,"[2]; dose 100, 1 h",Minimal motor impairment
same,TOX N/F (mice showing an effect / mice tested),"[3]; 0.1 mg/kg i.p., SOL, 4.0 h",0/4
same,"Comment (6 Hz test, 22 mA)",[3]; 0.18 mg/kg IP,Minimal motor impairment
same,"Comment (6 Hz test, 32 mA)",[3]; 0.2 mg/kg IP,Tremors
same,"Comment (6 Hz test, 32 mA)",[3]; 0.3 mg/kg IP,Tremors; also recorded: Minimal motor impairment
same,TOX N/F (mice showing an effect / mice tested),"[3]; 0.3 mg/kg i.p., SOL, 4.0 h",0/4
same,"Comment (6 Hz test, 22 mA)",[3]; 0.35 mg/kg IP,Minimal motor impairment
same,"Comment (6 Hz test, 32 mA)",[3]; 0.42 mg/kg IP,Tremors; also recorded: Minimal motor impairment
same,"Comment (6 Hz test, 22 mA)",[3]; 0.7 mg/kg IP,Tremors; also recorded: Minimal motor impairment
same,"Comment (6 Hz test, 32 mA)",[3]; 0.83 mg/kg IP,Tremors; also recorded: Minimal motor impairment
same,TOX N/F (mice showing an effect / mice tested),"[3]; 1 mg/kg i.p., SOL, 0.5 h, (T) animals displaying tremors",4/4 (T)^2
same,TOX N/F (mice showing an effect / mice tested),"[3]; 1 mg/kg i.p., SOL, 4.0 h, (T) animals displaying tremors",2/2 (T)
same,TOX N/F (mice showing an effect / mice tested),"[3]; 3 mg/kg i.p., SUS, 0.5 h",8/8
same,TOX N/F (mice showing an effect / mice tested),"[3]; 3 mg/kg i.p., SUS, 4.0 h, (T) animals displaying tremors",4/4 (T)
same,TOX N/F (mice showing an effect / mice tested),"[3]; 10 mg/kg i.p., SUS, 0.5 h",4/4
same,TOX N/F (mice showing an effect / mice tested),"[3]; 10 mg/kg i.p., SUS, 4.0 h, (T) animals displaying tremors",2/2 (T)
same,TOX N/F (mice showing an effect / mice tested),"[3]; 30 mg/kg i.p., SUS, 0.5 h, (D) death of animals",4/4 (D)^3
same,TOX N/F (mice showing an effect / mice tested),"[3]; 100 mg/kg i.p., SUS, 0.5 h, (D) death of animals",8/8 (D)
same,TOX N/F (mice showing an effect / mice tested),"[3]; 300 mg/kg i.p., SUS, 0.5 h, (D) death of animals",4/4 (D)
same,behavioral impairment at anticonvulsant doses,[3]; mice,marked motor impairment
